Tests used:
[1] = target: GDP-bound HRAS wild-type protein (Homo sapiens, UniProt P01112); experiment: Binding to HRAS by surface plasmon resonance (SPR), Single Cycle Kinetics; settings: KD ratio HRAS/KRAS, class symbols
[2] = target: GDP-bound NRAS wild-type protein (Homo sapiens, UniProt P01111); experiment: Binding to NRAS by surface plasmon resonance (SPR), Single Cycle Kinetics; settings: KD ratio NRAS/KRAS, class symbols
Chain of GDP-bound NRAS wild-type protein (P01111 whole entry): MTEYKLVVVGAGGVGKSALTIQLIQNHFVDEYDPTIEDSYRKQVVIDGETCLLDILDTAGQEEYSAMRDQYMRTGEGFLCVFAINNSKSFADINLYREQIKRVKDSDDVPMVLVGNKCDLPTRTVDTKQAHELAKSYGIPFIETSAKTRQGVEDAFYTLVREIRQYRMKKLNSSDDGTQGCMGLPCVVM

Chain of GDP-bound HRAS wild-type protein (P01112 whole entry): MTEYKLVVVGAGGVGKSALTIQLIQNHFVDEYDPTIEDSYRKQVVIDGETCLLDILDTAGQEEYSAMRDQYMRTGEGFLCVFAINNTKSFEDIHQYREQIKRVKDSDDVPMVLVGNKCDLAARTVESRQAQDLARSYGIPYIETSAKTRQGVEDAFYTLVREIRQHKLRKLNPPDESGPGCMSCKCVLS

Row | Structure (SMILES) | HRAS/KRAS (ratio of KD value with respect to GDP-bound HRAS wild-type protein to KD value with respect to KRAS) [1] | NRAS/KRAS (ratio of KD value with respect to GDP-bound NRAS wild-type protein to KD value with respect to KRAS) [2]
1 | CCCOC[C@H]1C(=O)N[C@@H]([C@@H](C)CC)C(=O)N(C)CC(=O)N(C)[C@H]2C/C=C\CCN(C2=O)[C@@H](Cc2ccc(C)cc2)C(=O)N(C)CC(=O)N[C@@H](CCc2cc(F)c(C(F)(F)F)c(F)c2)C(=O)N2C[C@H](OCC)C[C@H]2C(=O)NC2(CC(C)(C)C2)C(=O)N(C)[C@@H](CC(C)(C)C)C(=O)N(C)[C@H](C(=O)N(C)C)CC(=O)N1C [PP2708] | A (a compound having 10 or more and less than 20 is denoted as A) | A (a compound having 10 or more and less than 20 is denoted as A)
2 | CCC[C@H]1C(=O)N[C@@H]([C@@H](C)CC)C(=O)N(C)CC(=O)N(C)[C@H]2C/C=C\CCN(C2=O)[C@@H](Cc2ccc(C)cc2)C(=O)N(C)CC(=O)N[C@@H](CCc2ccc(C(F)(F)F)c(OC)c2)C(=O)N2C[C@H](OCC)C[C@H]2C(=O)NC2(CC(C)(C)C2)C(=O)N(C)[C@@H](CC(C)(C)C)C(=O)N(C)[C@H](C(=O)N(C)C)CC(=O)N1C [PP2710] | B (a compound having 3 or more and less than 10 is denoted as B) | B (a compound having 3 or more and less than 10 is denoted as B)
3 | CCCOC[C@H]1C(=O)N[C@@H]([C@@H](C)CC)C(=O)N(C)CC(=O)N(C)[C@H]2C/C=C\CCN(C2=O)[C@@H](Cc2ccc(C)cc2)C(=O)N(C)CC(=O)N[C@@H](CCc2ccc(C(F)(F)F)c(OC)c2)C(=O)N2C[C@H](OCC)C[C@H]2C(=O)NC2(CC(C)(C)C2)C(=O)N(C)[C@@H](CC(C)(C)C)C(=O)N(C)[C@H](C(=O)N(C)C)CC(=O)N1C [PP2712] | B (a compound having 3 or more and less than 10 is denoted as B) | A (a compound having 10 or more and less than 20 is denoted as A)
4 | CCC[C@H]1C(=O)N[C@@H]([C@@H](C)CC)C(=O)N(C)CC(=O)N(C)[C@H]2C/C=C\CCN(C2=O)[C@@H](Cc2ccc(C)cc2)C(=O)N(C)CC(=O)N[C@@H](CCc2ccc(Cl)c(Cl)c2)C(=O)N2C[C@H](OCC)C[C@H]2C(=O)NC2(CC(C)(C)C2)C(=O)N(C)[C@@H](CC(C)(C)C)C(=O)N(C)[C@H](C(=O)N(C)C)CC(=O)N1C [PP2714] | A (a compound having 10 or more and less than 20 is denoted as A) | A (a compound having 10 or more and less than 20 is denoted as A)
5 | CCCOC[C@H]1C(=O)N[C@@H]([C@@H](C)CC)C(=O)N(C)CC(=O)N(C)[C@H]2C/C=C\CCN(C2=O)[C@@H](Cc2ccc(C)cc2)C(=O)N(C)CC(=O)N[C@@H](CCc2ccc(Cl)c(Cl)c2)C(=O)N2C[C@H](OCC)C[C@H]2C(=O)NC2(CC(C)(C)C2)C(=O)N(C)[C@@H](CC(C)(C)C)C(=O)N(C)[C@H](C(=O)N(C)C)CC(=O)N1C [PP2716] | A (a compound having 10 or more and less than 20 is denoted as A) | A (a compound having 10 or more and less than 20 is denoted as A)
6 | CCC[C@H]1C(=O)N[C@@H]([C@@H](C)CC)C(=O)N(C2CC2)CC(=O)N(C)[C@H]2C/C=C\CCN(C2=O)[C@@H](Cc2ccc(C)cc2)C(=O)N(C)CC(=O)N[C@@H](CCc2cc(F)c(C(F)(F)F)c(F)c2)C(=O)N2C[C@H](OCC)C[C@H]2C(=O)NC2(CC(C)(C)C2)C(=O)N(C)[C@@H](CC(C)(C)C)C(=O)N(C)[C@H](C(=O)N(C)C)CC(=O)N1C [PP2718] | A (a compound having 10 or more and less than 20 is denoted as A) | A (a compound having 10 or more and less than 20 is denoted as A)
7 | CCOC[C@H]1C(=O)N[C@@H]([C@@H](C)CC)C(=O)N(C2CC2)CC(=O)N(C)[C@H]2C/C=C\CCN(C2=O)[C@@H](Cc2ccc(C)cc2)C(=O)N(C)CC(=O)N[C@@H](CCc2cc(F)c(C(F)(F)F)c(F)c2)C(=O)N2C[C@H](OCC)C[C@H]2C(=O)NC2(CC(C)(C)C2)C(=O)N(C)[C@@H](CC(C)(C)C)C(=O)N(C)[C@H](C(=O)N(C)C)CC(=O)N1C [PP2720] | A (a compound having 10 or more and less than 20 is denoted as A) | A (a compound having 10 or more and less than 20 is denoted as A)
8 | CCC[C@H]1C(=O)N[C@@H]([C@@H](C)CC)C(=O)N(C2CC2)CC(=O)N(C)[C@H]2C/C=C\CCN(C2=O)[C@@H](Cc2ccc(C)cc2)C(=O)N(C)CC(=O)N[C@@H](CCc2ccc(C(F)(F)F)c(OC)c2)C(=O)N2C[C@H](OCC)C[C@H]2C(=O)NC2(CC(C)(C)C2)C(=O)N(C)[C@@H](CC(C)(C)C)C(=O)N(C)[C@H](C(=O)N(C)C)CC(=O)N1C [PP2722] | B (a compound having 3 or more and less than 10 is denoted as B) | B (a compound having 3 or more and less than 10 is denoted as B)
9 | CCOC[C@H]1C(=O)N[C@@H]([C@@H](C)CC)C(=O)N(C2CC2)CC(=O)N(C)[C@H]2C/C=C\CCN(C2=O)[C@@H](Cc2ccc(C)cc2)C(=O)N(C)CC(=O)N[C@@H](CCc2ccc(C(F)(F)F)c(OC)c2)C(=O)N2C[C@H](OCC)C[C@H]2C(=O)NC2(CC(C)(C)C2)C(=O)N(C)[C@@H](CC(C)(C)C)C(=O)N(C)[C@H](C(=O)N(C)C)CC(=O)N1C [PP2724] | B (a compound having 3 or more and less than 10 is denoted as B) | A (a compound having 10 or more and less than 20 is denoted as A)
10 | CCC[C@H]1C(=O)N[C@@H]([C@@H](C)CC)C(=O)N(C2CC2)CC(=O)N(C)[C@H]2C/C=C\CCN(C2=O)[C@@H](Cc2ccc(C)cc2)C(=O)N(C)CC(=O)N[C@@H](CCc2ccc(Cl)c(Cl)c2)C(=O)N2C[C@H](OCC)C[C@H]2C(=O)NC2(CC(C)(C)C2)C(=O)N(C)[C@@H](CC(C)(C)C)C(=O)N(C)[C@H](C(=O)N(C)C)CC(=O)N1C [PP2726] | A (a compound having 10 or more and less than 20 is denoted as A) | AA (a compound having 20 or more is denoted as AA)
11 | CCOC[C@H]1C(=O)N[C@@H]([C@@H](C)CC)C(=O)N(C2CC2)CC(=O)N(C)[C@H]2C/C=C\CCN(C2=O)[C@@H](Cc2ccc(C)cc2)C(=O)N(C)CC(=O)N[C@@H](CCc2ccc(Cl)c(Cl)c2)C(=O)N2C[C@H](OCC)C[C@H]2C(=O)NC2(CC(C)(C)C2)C(=O)N(C)[C@@H](CC(C)(C)C)C(=O)N(C)[C@H](C(=O)N(C)C)CC(=O)N1C [PP2728] | A (a compound having 10 or more and less than 20 is denoted as A) | AA (a compound having 20 or more is denoted as AA)
12 | CCOC[C@H]1C(=O)N[C@@H]([C@@H](C)CC)C(=O)N(C)CC(=O)N(C)[C@H]2C/C=C\CCN(C2=O)[C@@H](Cc2ccc(C(F)(F)F)cc2)C(=O)N(C)CC(=O)N[C@@H](CCc2cc(F)c(C(F)(F)F)c(F)c2)C(=O)N2C[C@H](OCC)C[C@H]2C(=O)NC2(CC(C)(C)C2)C(=O)N(C)[C@@H](CC(C)(C)C)C(=O)N(C)[C@H](C(=O)N(C)C)CC(=O)N1C [PP2732] | A (a compound having 10 or more and less than 20 is denoted as A) | A (a compound having 10 or more and less than 20 is denoted as A)
13 | CCC[C@H]1C(=O)N[C@@H]([C@@H](C)CC)C(=O)N(C)CC(=O)N(C)[C@H]2C/C=C\CCN(C2=O)[C@@H](Cc2ccc(C(F)(F)F)cc2)C(=O)N(C)CC(=O)N[C@@H](CCc2ccc(C(F)(F)F)c(OC)c2)C(=O)N2C[C@H](OCC)C[C@H]2C(=O)NC2(CC(C)(C)C2)C(=O)N(C)[C@@H](CC(C)(C)C)C(=O)N(C)[C@H](C(=O)N(C)C)CC(=O)N1C [PP2734] | B (a compound having 3 or more and less than 10 is denoted as B) | A (a compound having 10 or more and less than 20 is denoted as A)
14 | CCOC[C@H]1C(=O)N[C@@H]([C@@H](C)CC)C(=O)N(C)CC(=O)N(C)[C@H]2C/C=C\CCN(C2=O)[C@@H](Cc2ccc(C(F)(F)F)cc2)C(=O)N(C)CC(=O)N[C@@H](CCc2ccc(C(F)(F)F)c(OC)c2)C(=O)N2C[C@H](OCC)C[C@H]2C(=O)NC2(CC(C)(C)C2)C(=O)N(C)[C@@H](CC(C)(C)C)C(=O)N(C)[C@H](C(=O)N(C)C)CC(=O)N1C [PP2736] | A (a compound having 10 or more and less than 20 is denoted as A) | A (a compound having 10 or more and less than 20 is denoted as A)
15 | CCC[C@H]1C(=O)N[C@@H]([C@@H](C)CC)C(=O)N(C)CC(=O)N(C)[C@H]2C/C=C\CCN(C2=O)[C@@H](Cc2ccc(C(F)(F)F)cc2)C(=O)N(C)CC(=O)N[C@@H](CCc2ccc(Cl)c(Cl)c2)C(=O)N2C[C@H](OCC)C[C@H]2C(=O)NC2(CC(C)(C)C2)C(=O)N(C)[C@@H](CC(C)(C)C)C(=O)N(C)[C@H](C(=O)N(C)C)CC(=O)N1C [PP2738] | A (a compound having 10 or more and less than 20 is denoted as A) | AA (a compound having 20 or more is denoted as AA)
16 | CCOC[C@H]1C(=O)N[C@@H]([C@@H](C)CC)C(=O)N(C)CC(=O)N(C)[C@H]2C/C=C\CCN(C2=O)[C@@H](Cc2ccc(C(F)(F)F)cc2)C(=O)N(C)CC(=O)N[C@@H](CCc2ccc(Cl)c(Cl)c2)C(=O)N2C[C@H](OCC)C[C@H]2C(=O)NC2(CC(C)(C)C2)C(=O)N(C)[C@@H](CC(C)(C)C)C(=O)N(C)[C@H](C(=O)N(C)C)CC(=O)N1C [PP2740] | A (a compound having 10 or more and less than 20 is denoted as A) | AA (a compound having 20 or more is denoted as AA)

Source: patent US20250230193A1, “CYCLIC COMPOUND HAVING SELECTIVE KRAS INHIBITORY EFFECT ON HRAS AND NRAS” (CHUGAI SEIYAKU KABUSHIKI KAISHA, priority 2022, published 2025)
